Assay results as given in publication PMC7259601 (PLoS ONE, 2020).

What was measured:
[1] = tested on: M (non-selective) (antagonist radioligand); assay: CEREP Diversity Panel; format: binding; parameters: % inhibition: dose or concentration left out as unconfirmed
Description: (§1) […]. MAO-A inhibition at 10 μM was 37%, in line with internal data.

[2] = tested on: I2 (antagonist radioligand); assay: CEREP Diversity Panel; format: binding; parameters: % inhibition: dose or concentration left out as unconfirmed
Description: as §1

[3] = tested on: opioid (non-selective) (antagonist radioligand); assay: CEREP Diversity Panel; format: binding; parameters: dose or concentration left out as unconfirmed
Description: as §1

[4] = tested on: alpha 2 (non-selective) (antagonist radioligand); assay: CEREP Diversity Panel; format: binding; parameters: dose or concentration left out as unconfirmed
Description: as §1

[5] = tested on: Ca 2+ channel (L, dihydropyridine site) (antagonist radioligand); assay: CEREP Diversity Panel; format: binding; parameters: dose or concentration left out as unconfirmed
Description: as §1

[6] = tested on: NMDA (antagonist radioligand); assay: CEREP Diversity Panel; format: binding; parameters: dose or concentration left out as unconfirmed
Description: as §1

[7] = tested on: Cl- channel (GABA-gated) (antagonist radioligand); assay: CEREP Diversity Panel; format: binding; parameters: dose or concentration left out as unconfirmed
Description: as §1

[8] = tested on: KATP channel (antagonist radioligand); assay: CEREP Diversity Panel; format: binding; parameters: dose or concentration left out as unconfirmed
Description: as §1

[9] = tested on: Ca 2+ channel (L, diltiazem site) (benzothiazepines) (antagonist radioligand); assay: CEREP Diversity Panel; format: binding; parameters: dose or concentration left out as unconfirmed
Description: as §1

[10] = tested on: P2Y (agonist radioligand); assay: CEREP Diversity Panel; format: binding; parameters: dose or concentration left out as unconfirmed
Description: as §1

[11] = tested on: Ca 2+ channel (L, verapamil site) (phenylalkylamine) (antagonist radioligand); assay: CEREP Diversity Panel; format: binding; parameters: dose or concentration left out as unconfirmed
Description: as §1

[12] = tested on: Y (non-selective) (agonist radioligand); assay: CEREP Diversity Panel; format: binding; parameters: dose or concentration left out as unconfirmed
Description: as §1

[13] = tested on: I1 (agonist radioligand); assay: CEREP Diversity Panel; format: binding; parameters: dose or concentration left out as unconfirmed
Description: as §1

[14] = tested on: SKCa channel (antagonist radioligand); assay: CEREP Diversity Panel; format: binding; parameters: dose or concentration left out as unconfirmed
Description: as §1

[15] = tested on: s (non-selective) (agonist radioligand); assay: CEREP Diversity Panel; format: binding; parameters: dose or concentration left out as unconfirmed
Description: as §1

[16] = tested on: kainate (agonist radioligand); assay: CEREP Diversity Panel; format: binding; parameters: dose or concentration left out as unconfirmed
Description: as §1

[17] = molecular target: brain MAO-A (Mus musculus, UniProt Q64133); assay: in vivo
Description: Male CD1 mice (8 weeks of age, 25-30 g) procured from Charles River were housed in the same conditions as in Ex vivo assay of MAO-A inhibition section.
Ex-vivo MAO-A activity was measured essentially as previously described . […] Brain samples were weighed and then thawed and homogenised in 20 volumes of homogenisation buffer after which MAO-A activity was measured. […] Enzyme activity was corrected by subtracting an assay buffer blank and initially expressed in units of nmoles substrate/min. The protein concentration of the homogenates was measured and used to express final enzyme activity in units of nmoles/min/mg protein. All results are expressed as a mean of duplicate determinations. Brains from animals treated acutely were assayed on a different day to those treated for 5 days (chronically).
MAO-A activity was determined using serotonin creatinine sulphate [2-^14C] as outlined above. Raw enzyme activity values (in nmoles substrate/min) were corrected by subtracting an assay buffer blank and were normalized to the total protein concentration (in nmoles/min/mg protein). All results are means of duplicate determinations. Different drug treatments were compared by Oneway-ANOVA with Dunnett analysis.

[18] = molecular target: sirtuin 1 (h) (inhibitor effect) (Homo sapiens, UniProt Q96EB6); assay: Epigenetic selectivity profile; format: biochemical
Description: as §1

[19] = molecular target: SETD7 (h) (Homo sapiens, UniProt Q8WTS6); assay: Epigenetic selectivity profile; format: biochemical
Description: as §1

[20] = molecular target: SUV39H1 (h) (Homo sapiens, UniProt O43463); assay: Epigenetic selectivity profile; format: biochemical
Description: as §1

[21] = molecular target: MLL complex (h) (Homo sapiens, UniProt Q03164); assay: Epigenetic selectivity profile; format: biochemical
Description: as §1

[22] = molecular target: HDAC11 (h) (Homo sapiens, UniProt Q96DB2); assay: Epigenetic selectivity profile; format: biochemical
Description: as §1

[23] = molecular target: DNMT1 (h) (Homo sapiens, UniProt P26358); assay: Epigenetic selectivity profile; format: biochemical
Description: as §1

[24] = molecular target: JARID1A (h) (Homo sapiens, UniProt P29375); assay: Epigenetic selectivity profile; format: biochemical
Description: as §1

[25] = molecular target: HDAC6 (h) (Homo sapiens, UniProt Q9UBN7); assay: Epigenetic selectivity profile; format: biochemical
Description: as §1

[26] = molecular target: JMJD1A (h) (Homo sapiens, UniProt Q9Y4C1); assay: Epigenetic selectivity profile; format: biochemical
Description: as §1

[27] = tested on: 19 epigenetic targets; assay: Panel of 19 epigenetic targets; format: biochemical; conditions: 10 μM
Description: as §1

[28] = tested on: platelet (PLT) levels; assay: Rat pharmacodynamics: hematology, 5 day treatment and recovery
Description: KDM1A is involved in hematopoiesis, and it is well known that KDM1A knockdown or KDM1A inhibitors can halt hematopoiesis when administered at sufficiently high doses and during sufficient time^(39). […] Data from N = 6 rats are represented as mean ± SEM.
Male Wistar rats (N = 3 or 6 per dose level) of 10-12 weeks of age were maintained in air and temperature controlled cages with regular supply of water and food. A maximum of […] were raised. Before first administration, the animals were marked on the tail for identification. […] Animal of each treatment group were sampled for blood on days 1, 3, 5, 8, 10, 12, 15, 17 and 19. Blood samples of days 1, 3 and 5 were obtained just one hr after the compound administration. Blood samples were obtained from leg saphenous vein using recipients treated with EDTA to avoid coagulation. The last day of the study, rats were euthanized under CO2 saturated atmosphere and blood was extracted by cardiac puncture and collected in recipients containing EDTA.
Blood samples obtained from leg saphenous vein or cardiac puncture were analyzed on a Diatron hematology analyzer at SEA (Plataforma Recerca Aplicada Animal de Laboratori, Parc Científic de Barcelona).
Hematology parameters were calculated as mean ± SEM and represented as a timecourse.

Sequence of brain MAO-A (Q64133 whole entry): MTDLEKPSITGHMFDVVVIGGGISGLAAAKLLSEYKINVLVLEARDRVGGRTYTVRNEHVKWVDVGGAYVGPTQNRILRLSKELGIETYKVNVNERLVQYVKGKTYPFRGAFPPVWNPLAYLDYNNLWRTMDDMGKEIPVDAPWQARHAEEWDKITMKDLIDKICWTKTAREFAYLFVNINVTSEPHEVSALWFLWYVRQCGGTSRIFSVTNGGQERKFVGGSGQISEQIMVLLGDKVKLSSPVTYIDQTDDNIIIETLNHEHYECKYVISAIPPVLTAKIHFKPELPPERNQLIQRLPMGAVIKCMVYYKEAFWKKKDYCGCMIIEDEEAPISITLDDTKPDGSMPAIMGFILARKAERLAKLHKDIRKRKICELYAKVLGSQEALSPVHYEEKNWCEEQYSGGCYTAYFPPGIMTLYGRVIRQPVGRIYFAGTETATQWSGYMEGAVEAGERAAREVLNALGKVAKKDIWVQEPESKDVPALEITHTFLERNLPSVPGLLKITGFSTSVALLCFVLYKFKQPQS
Sequence of HDAC6 (h) (Q9UBN7 whole entry): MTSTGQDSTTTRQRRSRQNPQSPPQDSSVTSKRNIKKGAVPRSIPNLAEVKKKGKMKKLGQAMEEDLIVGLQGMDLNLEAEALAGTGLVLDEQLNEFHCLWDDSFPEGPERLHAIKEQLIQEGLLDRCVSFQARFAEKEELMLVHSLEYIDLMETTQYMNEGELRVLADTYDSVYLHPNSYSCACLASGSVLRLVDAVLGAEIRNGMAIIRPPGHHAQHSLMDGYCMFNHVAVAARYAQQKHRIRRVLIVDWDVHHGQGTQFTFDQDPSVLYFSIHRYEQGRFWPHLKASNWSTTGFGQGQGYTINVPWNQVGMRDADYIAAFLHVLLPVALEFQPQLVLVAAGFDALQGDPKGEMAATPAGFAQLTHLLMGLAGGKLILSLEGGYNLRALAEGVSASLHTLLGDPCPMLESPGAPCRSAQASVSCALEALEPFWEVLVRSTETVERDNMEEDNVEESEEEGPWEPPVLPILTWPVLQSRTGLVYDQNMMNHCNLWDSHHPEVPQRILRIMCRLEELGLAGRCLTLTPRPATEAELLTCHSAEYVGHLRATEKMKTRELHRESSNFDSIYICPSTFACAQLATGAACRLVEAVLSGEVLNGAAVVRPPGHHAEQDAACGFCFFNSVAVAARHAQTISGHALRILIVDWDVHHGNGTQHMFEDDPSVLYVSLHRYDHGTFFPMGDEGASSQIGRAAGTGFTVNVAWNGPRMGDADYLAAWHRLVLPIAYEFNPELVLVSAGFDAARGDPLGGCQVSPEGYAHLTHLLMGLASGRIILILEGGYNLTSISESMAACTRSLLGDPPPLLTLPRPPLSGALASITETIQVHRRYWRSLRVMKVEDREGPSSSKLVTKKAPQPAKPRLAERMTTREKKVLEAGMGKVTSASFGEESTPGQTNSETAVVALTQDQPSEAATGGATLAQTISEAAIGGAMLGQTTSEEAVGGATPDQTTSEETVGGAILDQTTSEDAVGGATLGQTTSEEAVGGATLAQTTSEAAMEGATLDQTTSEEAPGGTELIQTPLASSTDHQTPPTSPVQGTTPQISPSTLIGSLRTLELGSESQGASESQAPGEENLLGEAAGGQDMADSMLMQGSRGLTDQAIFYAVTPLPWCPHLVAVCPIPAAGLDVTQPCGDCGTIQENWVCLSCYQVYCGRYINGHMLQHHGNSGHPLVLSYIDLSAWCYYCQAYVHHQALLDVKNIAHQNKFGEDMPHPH
Sequence of JMJD1A (h) (Q9Y4C1 whole entry): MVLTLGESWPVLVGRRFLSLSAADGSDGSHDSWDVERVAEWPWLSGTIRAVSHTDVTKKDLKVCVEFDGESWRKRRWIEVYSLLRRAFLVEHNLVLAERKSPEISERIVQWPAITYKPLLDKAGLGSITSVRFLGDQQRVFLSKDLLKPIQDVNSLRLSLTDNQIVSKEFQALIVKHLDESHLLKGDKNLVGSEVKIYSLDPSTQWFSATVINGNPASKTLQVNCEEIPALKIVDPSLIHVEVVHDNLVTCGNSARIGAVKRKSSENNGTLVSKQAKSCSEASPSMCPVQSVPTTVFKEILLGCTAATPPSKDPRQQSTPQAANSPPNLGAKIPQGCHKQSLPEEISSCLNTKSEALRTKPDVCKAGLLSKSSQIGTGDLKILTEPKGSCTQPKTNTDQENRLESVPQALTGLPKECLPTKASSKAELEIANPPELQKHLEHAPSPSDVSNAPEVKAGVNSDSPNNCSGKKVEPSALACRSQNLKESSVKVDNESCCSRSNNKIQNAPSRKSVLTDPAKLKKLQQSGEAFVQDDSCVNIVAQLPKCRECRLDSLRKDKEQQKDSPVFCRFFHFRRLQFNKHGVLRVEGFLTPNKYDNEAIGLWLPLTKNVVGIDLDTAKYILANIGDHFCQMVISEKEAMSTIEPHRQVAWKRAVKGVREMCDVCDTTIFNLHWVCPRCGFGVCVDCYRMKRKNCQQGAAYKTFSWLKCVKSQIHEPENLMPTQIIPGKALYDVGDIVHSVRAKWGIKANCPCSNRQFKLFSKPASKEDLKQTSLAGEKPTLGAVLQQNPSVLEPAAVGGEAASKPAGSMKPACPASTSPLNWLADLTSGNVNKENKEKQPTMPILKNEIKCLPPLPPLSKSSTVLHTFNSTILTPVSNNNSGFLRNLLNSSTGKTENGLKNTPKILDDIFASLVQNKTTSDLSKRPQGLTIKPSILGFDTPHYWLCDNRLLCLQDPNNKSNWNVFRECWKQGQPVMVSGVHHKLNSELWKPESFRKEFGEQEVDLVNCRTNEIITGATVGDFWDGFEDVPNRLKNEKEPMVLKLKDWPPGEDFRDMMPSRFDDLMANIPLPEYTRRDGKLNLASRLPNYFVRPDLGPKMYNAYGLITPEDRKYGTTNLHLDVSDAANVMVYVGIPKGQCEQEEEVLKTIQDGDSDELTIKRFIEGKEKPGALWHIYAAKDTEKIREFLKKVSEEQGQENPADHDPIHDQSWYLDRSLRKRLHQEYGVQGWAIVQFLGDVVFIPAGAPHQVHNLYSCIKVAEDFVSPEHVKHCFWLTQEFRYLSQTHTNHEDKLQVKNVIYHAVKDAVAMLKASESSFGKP
Sequence of JARID1A (h) (P29375 whole entry): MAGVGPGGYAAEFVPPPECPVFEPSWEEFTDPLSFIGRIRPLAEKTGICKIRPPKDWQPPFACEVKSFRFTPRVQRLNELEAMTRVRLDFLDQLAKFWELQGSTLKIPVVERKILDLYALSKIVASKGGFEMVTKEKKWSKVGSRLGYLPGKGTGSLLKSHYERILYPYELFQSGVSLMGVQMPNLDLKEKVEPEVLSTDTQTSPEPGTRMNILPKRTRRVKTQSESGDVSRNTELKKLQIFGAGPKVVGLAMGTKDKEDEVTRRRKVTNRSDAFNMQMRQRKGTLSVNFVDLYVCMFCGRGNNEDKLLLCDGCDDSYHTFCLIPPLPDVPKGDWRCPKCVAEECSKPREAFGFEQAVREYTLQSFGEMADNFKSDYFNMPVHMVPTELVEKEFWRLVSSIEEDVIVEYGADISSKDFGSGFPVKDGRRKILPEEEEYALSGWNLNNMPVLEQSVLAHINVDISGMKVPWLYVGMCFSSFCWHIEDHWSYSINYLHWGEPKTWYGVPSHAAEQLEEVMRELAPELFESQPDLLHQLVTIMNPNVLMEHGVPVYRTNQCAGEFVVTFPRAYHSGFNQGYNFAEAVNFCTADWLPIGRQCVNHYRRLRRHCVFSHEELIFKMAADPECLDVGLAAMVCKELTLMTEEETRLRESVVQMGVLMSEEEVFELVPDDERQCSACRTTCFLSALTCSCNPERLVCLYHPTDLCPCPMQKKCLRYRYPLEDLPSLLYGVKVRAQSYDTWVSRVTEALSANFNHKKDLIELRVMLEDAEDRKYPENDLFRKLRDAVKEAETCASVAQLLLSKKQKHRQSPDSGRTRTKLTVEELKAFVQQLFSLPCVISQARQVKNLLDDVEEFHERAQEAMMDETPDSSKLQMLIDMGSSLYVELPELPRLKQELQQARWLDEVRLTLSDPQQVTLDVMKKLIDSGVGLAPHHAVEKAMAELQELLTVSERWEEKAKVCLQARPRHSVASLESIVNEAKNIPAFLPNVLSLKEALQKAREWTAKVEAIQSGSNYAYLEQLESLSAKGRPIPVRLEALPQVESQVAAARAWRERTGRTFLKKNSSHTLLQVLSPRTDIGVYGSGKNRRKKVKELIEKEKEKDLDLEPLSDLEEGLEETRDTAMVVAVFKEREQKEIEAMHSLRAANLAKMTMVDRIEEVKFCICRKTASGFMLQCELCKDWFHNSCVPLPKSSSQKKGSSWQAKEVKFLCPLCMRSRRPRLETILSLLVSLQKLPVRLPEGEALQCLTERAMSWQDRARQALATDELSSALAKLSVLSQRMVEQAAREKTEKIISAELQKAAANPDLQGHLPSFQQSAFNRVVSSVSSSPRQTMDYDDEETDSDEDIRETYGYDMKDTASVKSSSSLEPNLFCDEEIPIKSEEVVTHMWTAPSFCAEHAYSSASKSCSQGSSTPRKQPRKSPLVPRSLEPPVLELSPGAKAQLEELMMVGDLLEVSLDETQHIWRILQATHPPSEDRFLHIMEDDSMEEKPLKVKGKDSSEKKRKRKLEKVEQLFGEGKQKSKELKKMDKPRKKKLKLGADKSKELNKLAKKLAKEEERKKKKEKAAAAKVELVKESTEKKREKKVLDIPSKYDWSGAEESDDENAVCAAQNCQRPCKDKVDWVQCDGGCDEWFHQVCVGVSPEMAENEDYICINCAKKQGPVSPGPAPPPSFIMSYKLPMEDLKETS
Sequence of SETD7 (h) (Q8WTS6 whole entry): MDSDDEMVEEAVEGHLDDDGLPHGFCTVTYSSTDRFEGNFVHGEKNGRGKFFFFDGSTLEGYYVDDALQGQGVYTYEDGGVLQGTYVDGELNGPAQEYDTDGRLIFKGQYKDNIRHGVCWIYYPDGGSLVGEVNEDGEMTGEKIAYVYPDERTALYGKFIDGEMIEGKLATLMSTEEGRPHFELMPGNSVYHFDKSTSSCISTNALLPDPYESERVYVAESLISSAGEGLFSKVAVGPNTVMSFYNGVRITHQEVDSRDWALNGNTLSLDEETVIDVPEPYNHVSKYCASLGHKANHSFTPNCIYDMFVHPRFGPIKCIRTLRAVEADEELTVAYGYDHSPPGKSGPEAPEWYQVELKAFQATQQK

Nc1nnc(CN[C@@H]2C[C@H]2c2ccc(OCc3ccccc3)cc2)o1 [ORY-2001, vafidemstat]
% inhibition [1]: 1% | muscarinic receptor antagonist (MRA) activity [1]: not an MRA | % inhibition [2]: 71% | I2 imidazoline receptor inhibition of ligand binding ([2]; 10 μM): 71% | % inhibition [3]: -2% | % inhibition [4]: 3% | % inhibition [5]: -1% | % inhibition [6]: 6% | % inhibition [7]: 31% | % inhibition [8]: 3% | % inhibition [9]: 0% | % inhibition [10]: 5% | % inhibition [11]: 5% | % inhibition [12]: -28% | % inhibition [13]: 26% | % inhibition [14]: -11% | % inhibition [15]: 9% | % inhibition [16]: 2% | ex vivo brain MAO-A inhibition, acute setting ([17]; mice, acute 1 to 100 mg/kg p.o. gavage): only the 100 mg/kg dose led to a significant inhibition | ED50 ([17]; mouse, po, read-out: ED50 ex vivo brain MAO-A inhibition): ~10 mg/kg | inhibition at 10 µM [18]: 1% | inhibition at 10 µM [19]: -3% | inhibition at 10 µM [20]: -7% | inhibition at 10 µM [21]: 3% | inhibition at 10 µM [22]: -2% | inhibition at 10 µM [23]: 15% | inhibition at 10 µM [24]: 2% | inhibition at 10 µM [25]: 0% | inhibition at 10 µM [26]: -11% | % inhibition, any of 19 epigenetic targets [27]: ≤ 15% | dose limiting toxicity in 5 day MTD studies ([28]; hematopoietic impact): reversible and dose dependent impact on platelets | maximum PLT rebound ([28]; rats, 5 day treatment, 14 day recuperation): ~12 days | EC50 of PLT reduction ([28]; rats, p.o. gavage, 5 day treatment): ~ 0.5 mg/kg
